Reference: US20090048269A1 (AstraZeneca AB, priority 2007, published 2009)

Legend:
human ALK5 [1] = biological target: T1, human ALK5 (Homo sapiens, UniProt P36897); assay: ALK5 Enzyme Assay 2 (fluorescence polarisation probe displacement); format: binding; parameters: 6His tagged human ALK5 (residues162-503) was grown and purified from insect cells; 6His; made in house; host or cells: insect cells
T1 sequence (P36897 162-503): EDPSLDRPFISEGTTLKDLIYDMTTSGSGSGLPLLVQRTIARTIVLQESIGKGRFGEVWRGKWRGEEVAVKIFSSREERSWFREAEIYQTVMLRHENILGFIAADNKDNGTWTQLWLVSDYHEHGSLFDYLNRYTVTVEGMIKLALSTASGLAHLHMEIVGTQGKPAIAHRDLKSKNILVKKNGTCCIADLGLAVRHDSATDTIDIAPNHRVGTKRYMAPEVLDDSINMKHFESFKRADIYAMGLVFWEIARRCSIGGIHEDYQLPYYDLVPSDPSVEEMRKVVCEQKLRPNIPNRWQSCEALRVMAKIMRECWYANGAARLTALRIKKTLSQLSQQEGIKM
Procedure, shortened: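 Recombinant ALK5 (3 μg/mL) incubated with test compound in 50 mM HEPES pH7.4, 10 mM MgCl2, 1 mM DTT, 0.01% CHAPS. Displacement of a fluorescent quinazoline-based ALK5 probe (50 nM final) in presence of 1 μM ATP read by fluorescence polarisation.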

human ALK5 [2] = biological target: T1, human ALK5; assay: ALK5 Enzyme Assay 1; format: biochemical; parameters: 6His tagged ALK5 protein (amino acids 162-503) expressed in insect cells; 6His; made in house; host or cells: insect cells
Experimental: This assay measures the ability of a compound to bind to and inhibit the activity of ALK5 protein in vitro. […] Assay measurements were performed in assay buffer comprising 60 mM HEPES pH 7.4, 3 mM MgCl2, 3 mM MnCl2, 3 μM Na orthovanadate, 1.2 mM DTT and 0.05% PEG2000. […] Reactions were performed in the presence of 200 μg/mL casein (Sigma-Aldrich C4765-10ML), 200 ng/mL ALK5, 0.5 μM ATP (Sigma-Aldrich A7699), 1 μCi/mL γ-33P ATP. Following addition of casein, ATP and compound, reactions were initiated by adding ALK5 enzyme and reactions run for 90 minutes. After incubation reactions were terminated by addition of 20 μL per well of 50% orthophosphoric acid. 20 minutes after addition of 70% v/v TCA, precipitated protein was transferred to GF/C 96 well plates using a Tomtec harvester with 1.5% orthophosphoric acid. […] All reactions were performed under linear kinetics.

[3] = read-out: EAA2: activity (μM) using Enzyme Assay 2
[4] = read-out: EAA: activity (μM) using Enzyme Assay 1

SMILES	IC50 (human ALK5 [1]; [3]) [µM]	IC50 (human ALK5 [2]; [4]) [µM]	IC50 (human ALK5 [1]) [µM]	IC50 (human ALK5 [2]; EAA: activity (μM) using Enzyme Assay 1) [µM]
Cc1cc(Oc2ccnc(Nc3ccc(S(C)(=O)=O)cc3)c2)c(-c2ccccn2)nc1C [Example 13, 4-(5,6-Dimethyl-2-pyridin-2-yl-pyridin-3-yl)oxy-N-(4-methylsulfonyl-phenyl)-pyridin-2-amine]	0.0103	0.00853		
Cc1cc(Oc2ccnc(Nc3cccnc3)c2)c(-c2ccccn2)nc1C [Example 15, 4-(5,6-Dimethyl-2-pyridin-2-yl-pyridin-3-yl)oxy-N-pyridin-3-yl-pyridin-2-amine]	0.0147	0.0129		
Cc1cc(Oc2ccnc(Nc3ccc(N4CCN(C)CC4)cc3)c2)c(-c2ccccn2)nc1C [Example 20, 4-(5,6-Dimethyl-2-pyridin-2-yl-pyridin-3-yl)oxy-N-[4-(4-methyl-piperazin-1-yl)phenyl]pyridin-2-amine]	0.0166	0.0104		
Cc1cc(Oc2ccnc(Nc3cc(N4CCOCC4)cc(N4CCOCC4)c3)c2)c(-c2ccccn2)nc1C [Example 21, 4-(5,6-Dimethyl-2-pyridin-2-yl-pyridin-3-yl)oxy-N-(3,5-dimorpholin-4-ylphenyl)pyridin-2-amine]	0.125	0.0772		
Cc1cc(Oc2ccnc(Nc3ccc(S(N)(=O)=O)cc3)c2)c(-c2ccccn2)nc1C [Example 26, 4-{[4-(5,6-Dimethyl-2-pyridin-2-yl-pyridin-3-yl)oxypyridin-2-yl]-amino}benzenesulfonamide]	0.0124	0.0219		
Cc1cc(Oc2ccnc(Nc3ccc(C(=O)N(C)C)cc3)c2)c(-c2ccccn2)nc1C [Example 27, 4-{[4-(5,6-Dimethyl-2-pyridin-2-yl-pyridin-3-yl)oxypyridin-2-yl]-amino}-N,N-dimethyl-benzamide]	0.0124	0.00706		
Cc1cc(Oc2ccnc(Nc3cc(F)ccc3F)c2)c(-c2ccccn2)nc1C [Example 31, N-(2,5-Difluorophenyl)-4-(5,6-dimethyl-2-pyridin-2-yl-pyridin-3-yl)-oxy-pyridin-2-amine]	0.0312	0.0274		
CCn1nccc1Nc1cc(Oc2cc(C)c(C)nc2-c2ccccn2)ccn1 [Example 32, 4-(5,6-Dimethyl-2-pyridin-2-yl-pyridin-3-yl)oxy-N-(2-ethylpyrazol-3-yl)-pyridin-2-amine]	0.0339	0.0425		
Cc1cc(Oc2ccnc(Nc3ccc(CO)cc3)c2)c(-c2ccccn2)nc1C [Example 33, (4-{[4-(5,6-Dimethyl-2-pyridin-2-yl-pyridin-3-yl)-oxypyridin-2-yl]amino}phenyl)methanol]	0.0167	0.0172		
Cc1cc(Oc2ccnc(Nc3ccc(C#N)cc3)c2)c(-c2ccccn2)nc1C [Example 34, 4-{[4-(5,6-Dimethyl-2-pyridin-2-yl-pyridin-3-yl)-oxypyridin-2-yl]amino}benzonitrile]	0.0255	0.0215		
Cc1cc(Oc2ccnc(Nc3ccc4[nH]ccc4c3)c2)c(-c2ccccn2)nc1C [Example 35, N-[4-(5,6-Dimethyl-2-pyridin-2-yl-pyridin-3-yl)-oxypyridin-2-yl]-1H-indol-5-amine]	0.463	0.205		
Cc1cc(Oc2ccnc(Nc3ccncc3)c2)c(-c2ccccn2)nc1C [Example 36, 4-(5,6-Dimethyl-2-pyridin-2-yl-pyridin-3-yl)oxy-N-pyridin-4-yl-pyridin-2-amine]	0.0515	0.0632		
Cc1cc(Oc2ccnc(Nc3ccc(F)cc3F)c2)c(-c2ccccn2)nc1C [Example 37, N-(2,4-Difluorophenyl)-4-(5,6-dimethyl-2-pyridin-2-yl-pyridin-3-yl)oxy-pyridin-2-amine]	0.0216	0.036		
CCc1ccc(Oc2ccnc(Nc3ccc(S(N)(=O)=O)cc3)c2)c(-c2ccccn2)n1 [Example 44, 4-{[4-(6-Ethyl-2-pyridin-2-yl-pyridin-3-yl)oxypyridin-2-yl]-amino}benzene-sulfonamide]	0.0165	0.0161		

Further lines, results first:

IC50 (human ALK5 [1]; [3]) [µM]	IC50 (human ALK5 [2]; [4]) [µM]	IC50 (human ALK5 [1]) [µM]	IC50 (human ALK5 [2]; EAA: activity (μM) using Enzyme Assay 1) [µM]	SMILES
0.00602	0.0128			CC(=O)Nc1cc(Nc2cc(Oc3cc(C)c(C)nc3-c3ccccn3)ccn2)ccc1C [Example 16, N-(5-{[4-(5,6-Dimethyl-2-pyridin-2-yl-pyridin-3-yl)oxypyridin-2-yl]amino}-2-methyl-phenyl)acetamide]
0.0514	0.0147			COc1ccc(S(C)(=O)=O)cc1Nc1cc(Oc2cc(C)c(C)nc2-c2ccccn2)ccn1 [Example 17, 4-(5,6-Dimethyl-2-pyridin-2-yl-pyridin-3-yl)oxy-N-(2-methoxy-5-methylsulfonyl-phenyl)pyridin-2-amine]
		0.00216	0.0128	COc1ccccc1Nc1cc(Oc2cc(C)c(C)nc2-c2ccccn2)ccn1 [Example 19, 4-(5,6-Dimethyl-2-pyridin-2-yl-pyridin-3-y1)oxy-N-(2-methoxy-phenyl)-pyridin-2-amine]
0.0184	0.0166			Cc1cc(Oc2ccnc(Nc3cccc(F)c3)c2)c(-c2ccccn2)nc1C [Example 29, N-(3-Fluorophenyl)-4-(5,6-dimethyl-2-pyridin-2-yl-pyridin-3-yl)-oxy-pyridin-2-amine]
0.894	1.67			Cc1cc(Oc2ccnc(Nc3ccc(Cl)cc3)c2)c(-c2ccccn2)nc1C [Example 30, N-(4-Chlorophenyl)-4-(5,6-dimethyl-2-pyridin-2-yl-pyridin-3-yl)oxy-pyridin-2-amine]
0.00378	0.00977			Cc1cc(Oc2ccnc(Nc3cccc(CO)c3)c2)c(-c2ccccn2)nc1C [Example 38, (3-{[4-(5,6-Dimethyl-2-pyridin-2-yl-pyridin-3-yl)-oxypyridin-2-yl]amino}phenyl)methanol]
0.0123	0.0141			Cc1cc(Oc2ccnc(Nc3cccc(C#N)c3)c2)c(-c2ccccn2)nc1C [Example 41, 3-{[4-(5,6-Dimethyl-2-pyridin-2-yl-pyridin-3-yl)oxypyridin-2-yl]-amino}-benzonitrile]
0.00728	0.0162			Cc1ccc(Oc2ccnc(Nc3ccc(S(N)(=O)=O)cc3)c2)c(-c2ccccn2)n1 [Example 43, 4-{[4-(6-Methyl-2-pyridin-2-yl-pyridin-3-yl)oxypyridin-2-yl]-amino}benzene-sulfonamide]
0.00799	0.00537			COc1cc(Nc2cc(Oc3ccc(C)nc3-c3ccccc3)ccn2)cc(OC)c1OC [Example 45, 4-(6-Methyl-2-phenyl-pyridin-3-yl)oxy-N-(3,4,5-trimethoxy-phenyl)pyridin-2-amine]
0.0175	0.0153			COc1cc(Nc2cc(Oc3ccc(C)nc3-c3cscc3C)ccn2)cc(OC)c1OC [Example 46, 4-[6-Methyl-2-(4-methylthiophen-3-yl)pyridin-3-yl]oxy-N-(3,4,5-trimethoxyphenyl)pyridin-2-amine]
0.0108	0.0248			COc1cc(Nc2cc(Oc3ccc(C)nc3-c3ccccn3)ccn2)cc(OC)c1OC [Example 47, 4-(6-Methyl-2-pyridin-2-yl-pyridin-3-yl)oxy-N-(3,4,5-trimethoxy-phenyl)pyridin-2-amine]
0.0486	0.0751			COc1cc(Nc2cc(Oc3ccc(C)nc3-c3cnccn3)ccn2)cc(OC)c1OC [Example 48, 4-(6-Methyl-2-pyrazin-2-yl-pyridin-3-yl)oxy-N-(3,4,5-trimethoxy-phenyl)pyridin-2-amine]
